Measured values as given in patent US9995734B2, “Human T cell line assay for evaluating the immunologic identity of glatiramer acetate preparations” (Mylan Inc., priority 2013, dated 2018).

Key:
[1] = tested on: Donor 4 COP Responsive T-Cell Lines; experiment: Multiplex bead cytokine assay (FlowCytomix), Donor 4 COP responsive T-cell lines; type: cell-based, human; design: IFN-γ / 1L-9 / IL-22 / IL-13: unit not given here
Description: (§1) The concentration of multiple cytokines was measured simultaneously using FlowCytoMix™ kits (eBioscience, San Diego Calif.). These are fluorescent bead based assays consisting of beads conjugated to anti cytokine antibodies. Beads specific for each cytokine are distinguished by size and fluorescence at 670 run. Cytokine bound to each bead is detected using a phycoerythrin conjugated antibody so that the fluorescence at 585 nm reflects the concentration of cytokine in the sample. Two kits were utilized which measured different cytokine panels. The TH1/TH2 kit measures IFN-γ, IL-1β, IL-2, IL-4, IL-5, IL-6, IL-8, IL-10, IL-12p70, TNF-α (TNF) and TNF-β (LT). The TH1/TH2/TH9/TH17/TH22 kit measures […], IL-1β, IL-2, IL-4, IL-5, IL-6, IL-9, IL-10, IL-12p70, IL-13, IL-17, IL-22, and TNF-α (TNF). Both kits were used following the manufacturer's instructions.
On Day 23 the positive wells (cell lines listed in Table 26) were transferred to a 24-well plate and restimulated with 10 μg/mL COP in the presence of mitomycin-treated autologous PBMC. IL-2 was added at Day 24. On Day 31 (after four rounds of restimulation) ten lines were restimulated with 10 μg/mL COP to confirm antigen reactivity by a cytokine secretion assay. T-cells were added at 2×10^4 cells/well in 96-well plates in X-VIVO 15 medium. Each line was separately stimulated with 10 μg/mL GMA, and 10 μg/mL COP in the presence of (2×10^5 cells/well, i.e., 1×10^6 cells/mL) mitomycin-treated autologous PBMC. Culture medium was collected after 20-24 hours for cytokine assay (FlowCytomix multiplex bead assay). The supernatants were tested in triplicate for IL-12 p70, IFN-γ, IL-2, IL-10, IL-6, IL-4, IL-5, TNF-α, and TNF-β secretion. […] Secretion of IL-2, 11-10, and IL-4 varied among the lines. All samples also secreted IL-8 (data not shown).
Culture medium from each of two Donor 4 cell lines was assayed for an extended panel of cytokines, showing production of IL-13 and IL-22 (Table 32).

[2] = tested on: Donor 3 GMA Responsive T Cells; experiment: Cytokine multiplex assay, Donor 3 GMA responsive T cells; type: cell-based, human; conditions: culture medium
Description: as §1

[3] = T-cell line 1H9, 10 μg/mL, Day 31, medium after 20-24 hours
[4] = T-cell line 1H11, 10 μg/mL, Day 31, medium after 20-24 hours
[5] = T-cell line 205-1B4, extended cytokine multiplex assay
[6] = T-cell line 205-1B7, 10 μg/mL, Day 31, medium after 20-24 hours
[7] = T-cell line 205-1C4, 10 μg/mL, Day 31, medium after 20-24 hours
[8] = T-cell line 205-1F4, extended cytokine multiplex assay
[9] = T-cell line 205-1F5, 10 μg/mL, Day 31, medium after 20-24 hours
[10] = T-cell line 205-1G3, 10 μg/mL, Day 31, medium after 20-24 hours
[11] = T-cell line 205-1H5, 10 μg/mL, Day 31, medium after 20-24 hours
[12] = T-cell line 205-1H7, 10 μg/mL, Day 31, medium after 20-24 hours

In the case of glatiramer acetate [COP], the IFN-y [1, 3] is reported as 419.21 pg/mL, the IL-2 [1, 3] is reported as “<=0 pg/mL” and the IL-4 [1, 3] is reported as “<=0 pg/mL”. For the same substance, the IL-5 [1, 3] was “<=0 pg/mL”, the IL-6 [1, 3] was “<=0 pg/mL” and the IL-10 [1, 3] was “<=0 pg/mL”. The “IL-12 p70” value [1, 3] was “<=0 pg/mL”, the TNF-α [1, 3] was 159.6 pg/mL and the TNF-β [1, 3] was “<=0 pg/mL”. For the same substance, the IFN-y [1, 4] was 1016.21 pg/mL, the IL-2 [1, 4] was 44.94 pg/mL and the IL-4 [1, 4] was 2.09 pg/mL. The IL-5 [1, 4] was 3665.58 pg/mL, the IL-6 [1, 4] was 20.11 pg/mL and the IL-10 [1, 4] was 143.84 pg/mL. For the same substance, the “IL-12 p70” value [1, 4] was 3.68 pg/mL, the TNF-α [1, 4] was 754.13 pg/mL and the TNF-β [1, 4] was 1.55 pg/mL. For the same substance, the 1L-9 [1, 5] was 29, the IFN-γ [1, 5] was 726 and the IL-2 [1, 5] was 0. The IL-4 [1, 5] was 174, the IL-5 [1, 5] was 3660 and the IL-6 [1, 5] was 114. For the same substance, the IL-10 [1, 5] was 32, the IL-13 [1, 5] was 19288 and the IL-22 [1, 5] was 668. It also gave a TNF-α [1, 5] of 1336, an IFN-y [1, 6] of 935.78 pg/mL and an IL-2 [1, 6] of 27.99 pg/mL. The IL-4 [1, 6] was 200.19 pg/mL, the IL-5 [1, 6] was 7199.83 pg/mL and the IL-6 [1, 6] was 195.27 pg/mL. The IL-10 [1, 6] was 210.01 pg/mL, the “IL-12 p70” value [1, 6] was 18.39 pg/mL and the TNF-α [1, 6] was 1286.09 pg/mL. For the same substance, the TNF-β [1, 6] was 244.68 pg/mL, the IFN-y [1, 7] was 1212.03 pg/mL and the IL-2 [1, 7] was 478.51 pg/mL. The IL-4 [1, 7] was 199.97 pg/mL, the IL-5 [1, 7] was 6457.14 pg/mL and the IL-6 [1, 7] was 159.24 pg/mL. The IL-10 [1, 7] was 50.31 pg/mL, the “IL-12 p70” value [1, 7] was 51.14 pg/mL and the TNF-α [1, 7] was 1529.22 pg/mL. It also gave a TNF-β [1, 7] of 69.07 pg/mL, a 1L-9 [1, 8] of 10 and an IFN-γ [1, 8] of 1393. For the same substance, the IL-2 [1, 8] was 110, the IL-4 [1, 8] was 10 and the IL-5 [1, 8] was 1440. The IL-6 [1, 8] was 77, the IL-10 [1, 8] was 0 and the IL-13 [1, 8] was 4502. The IL-22 [1, 8] was 168, the TNF-α [1, 8] was 616 and the IFN-y [1, 9] was 452.76 pg/mL. The IL-2 [1, 9] was 205.85 pg/mL, the IL-4 [1, 9] was 293.46 pg/mL and the IL-5 [1, 9] was 13727.89 pg/mL. The IL-6 [1, 9] was 318.25 pg/mL, the IL-10 [1, 9] was 323.52 pg/mL and the “IL-12 p70” value [1, 9] was 55.94 pg/mL. The TNF-α [1, 9] was 833.39 pg/mL, the TNF-β [1, 9] was 278.68 pg/mL and the IFN-y [1, 10] was 211.16 pg/mL. For the same substance, the IL-2 [1, 10] was 10.89 pg/mL, the IL-4 [1, 10] was “<=0 pg/mL” and the IL-5 [1, 10] was 91.11 pg/mL. For the same substance, the IL-6 [1, 10] was 11.79 pg/mL, the IL-10 [1, 10] was “<=0 pg/mL” and the “IL-12 p70” value [1, 10] was “<=0 pg/mL”. For the same substance, the TNF-α [1, 10] was 38.56 pg/mL, the TNF-β [1, 10] was “<=0 pg/mL” and the IFN-y [1, 11] was 1149.77 pg/mL. The IL-2 [1, 11] was 15.14 pg/mL, the IL-4 [1, 11] was 79.67 pg/mL and the IL-5 [1, 11] was 3106.45 pg/mL. For the same substance, the IL-6 [1, 11] was 57.31 pg/mL, the IL-10 [1, 11] was 28.45 pg/mL and the “IL-12 p70” value [1, 11] was 7.96 pg/mL. The TNF-α [1, 11] was 1260.75 pg/mL, the TNF-β [1, 11] was 88.62 pg/mL and the IFN-y [1, 12] was 1617.25 pg/mL. It also gave an IL-2 [1, 12] of 351.63 pg/mL, an IL-4 [1, 12] of 90.37 pg/mL and an IL-5 [1, 12] of 101.71 pg/mL. The IL-6 [1, 12] was 69.44 pg/mL, the IL-10 [1, 12] was 10.06 pg/mL and the “IL-12 p70” value [1, 12] was 11.11 pg/mL. For the same substance, the TNF-α [1, 12] was 1924.81 pg/mL, the TNF-β [1, 12] was 49.17 pg/mL and the “cytokine secretion” value ([1]; most tested Donor 4 cell lines, Day 31, 10 μg/mL, 20-24 hours) was “secreted IFN-γ, IL-5, and TNF-α”. It also gave an IFN-γ ([2]; T-cell line 165-B5G) of 190 pg/mL, an IL-4 ([2]; T-cell line 165-B5G) of 17 pg/mL and an IL-5 ([2]; T-cell line 165-B5G) of 374 pg/mL. It also gave an IL-13 ([2]; T-cell line 165-B5G) of 2927 pg/mL, an IL-22 ([2]; T-cell line 165-B5G) of 106 pg/mL and an IFN-γ ([2]; T-cell line 165-D8G) of 115 pg/mL. The IL-4 ([2]; T-cell line 165-D8G) was 14 pg/mL, the IL-5 ([2]; T-cell line 165-D8G) was 309 pg/mL and the IL-13 ([2]; T-cell line 165-D8G) was 3121 pg/mL. The IL-22 ([2]; T-cell line 165-D8G) was 365 pg/mL, the IFN-γ ([2]; T-cell line 165-E9G) was 638 pg/mL and the IL-4 ([2]; T-cell line 165-E9G) was 12 pg/mL. It also gave an IL-5 ([2]; T-cell line 165-E9G) of 208 pg/mL, an IL-13 ([2]; T-cell line 165-E9G) of 1232 pg/mL and an IL-22 ([2]; T-cell line 165-E9G) of 192 pg/mL. For the same substance, the IFN-γ ([2]; T-cell line 165-F8G) was 771 pg/mL, the IL-4 ([2]; T-cell line 165-F8G) was 0 pg/mL and the IL-5 ([2]; T-cell line 165-F8G) was 297 pg/mL. The IL-13 ([2]; T-cell line 165-F8G) was 1017 pg/mL, the IL-22 ([2]; T-cell line 165-F8G) was 198 pg/mL and the IFN-γ ([2]; T-cell line 165-F10G) was 1165 pg/mL. It also gave an IL-4 ([2]; T-cell line 165-F10G) of 122 pg/mL, an IL-5 ([2]; T-cell line 165-F10G) of 2586 pg/mL and an IL-13 ([2]; T-cell line 165-F10G) of 11285 pg/mL. It also gave an IL-22 ([2]; T-cell line 165-F10G) of 686 pg/mL, an IFN-γ ([2]; T-cell line 165-H11G) of 724 pg/mL and an IL-4 ([2]; T-cell line 165-H11G) of 9 pg/mL. It also gave an IL-5 ([2]; T-cell line 165-H11G) of 321 pg/mL, an IL-13 ([2]; T-cell line 165-H11G) of 1095 pg/mL and an IL-22 ([2]; T-cell line 165-H11G) of 190 pg/mL.
